From patent publication US20230416248A1, “COMPOUNDS AND USES THEREOF” (Foghorn Therapeutics Inc., priority 2020, published 2023)

Legend:
BRM = target: T1, BRM (Homo sapiens, UniProt P51531); experiment: ATPase catalytic activity of BRM, ADP-Glo in vitro biochemical assay; settings: for IC50: ATPase catalytic activity, ADP-Glo, 30 nM BRM, 400 μM ATP; for Ratio*: ratio of BRG1 IC50 to BRM IC50
T1 construct: made in house; host or cells: High Five insect cells
Procedure, shortened: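 ADP-Glo luminescence, after depletion of leftover ATP and conversion of ADP, reported the activity. The 1 h room-temperature reaction held 400 μM ATP, 20 nM salmon sperm DNA and 30 nM BRM in 20 mM Tris pH 8, 20 mM MgCl2, 50 mM NaCl, 0.1% Tween-20, 1 mM DTT.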

BRG-1 = target: T2, BRG-1 (Homo sapiens, UniProt P51532); experiment: ATPase catalytic activity of BRG-1, ADP-Glo in vitro biochemical assay; settings: ATPase catalytic activity, ADP-Glo; 30 nM BRG-1, 400 μM ATP; read-out: BRG1 IC50
T2 construct: made in house; host or cells: High Five insect cells
T2 sequence (P51532 whole entry): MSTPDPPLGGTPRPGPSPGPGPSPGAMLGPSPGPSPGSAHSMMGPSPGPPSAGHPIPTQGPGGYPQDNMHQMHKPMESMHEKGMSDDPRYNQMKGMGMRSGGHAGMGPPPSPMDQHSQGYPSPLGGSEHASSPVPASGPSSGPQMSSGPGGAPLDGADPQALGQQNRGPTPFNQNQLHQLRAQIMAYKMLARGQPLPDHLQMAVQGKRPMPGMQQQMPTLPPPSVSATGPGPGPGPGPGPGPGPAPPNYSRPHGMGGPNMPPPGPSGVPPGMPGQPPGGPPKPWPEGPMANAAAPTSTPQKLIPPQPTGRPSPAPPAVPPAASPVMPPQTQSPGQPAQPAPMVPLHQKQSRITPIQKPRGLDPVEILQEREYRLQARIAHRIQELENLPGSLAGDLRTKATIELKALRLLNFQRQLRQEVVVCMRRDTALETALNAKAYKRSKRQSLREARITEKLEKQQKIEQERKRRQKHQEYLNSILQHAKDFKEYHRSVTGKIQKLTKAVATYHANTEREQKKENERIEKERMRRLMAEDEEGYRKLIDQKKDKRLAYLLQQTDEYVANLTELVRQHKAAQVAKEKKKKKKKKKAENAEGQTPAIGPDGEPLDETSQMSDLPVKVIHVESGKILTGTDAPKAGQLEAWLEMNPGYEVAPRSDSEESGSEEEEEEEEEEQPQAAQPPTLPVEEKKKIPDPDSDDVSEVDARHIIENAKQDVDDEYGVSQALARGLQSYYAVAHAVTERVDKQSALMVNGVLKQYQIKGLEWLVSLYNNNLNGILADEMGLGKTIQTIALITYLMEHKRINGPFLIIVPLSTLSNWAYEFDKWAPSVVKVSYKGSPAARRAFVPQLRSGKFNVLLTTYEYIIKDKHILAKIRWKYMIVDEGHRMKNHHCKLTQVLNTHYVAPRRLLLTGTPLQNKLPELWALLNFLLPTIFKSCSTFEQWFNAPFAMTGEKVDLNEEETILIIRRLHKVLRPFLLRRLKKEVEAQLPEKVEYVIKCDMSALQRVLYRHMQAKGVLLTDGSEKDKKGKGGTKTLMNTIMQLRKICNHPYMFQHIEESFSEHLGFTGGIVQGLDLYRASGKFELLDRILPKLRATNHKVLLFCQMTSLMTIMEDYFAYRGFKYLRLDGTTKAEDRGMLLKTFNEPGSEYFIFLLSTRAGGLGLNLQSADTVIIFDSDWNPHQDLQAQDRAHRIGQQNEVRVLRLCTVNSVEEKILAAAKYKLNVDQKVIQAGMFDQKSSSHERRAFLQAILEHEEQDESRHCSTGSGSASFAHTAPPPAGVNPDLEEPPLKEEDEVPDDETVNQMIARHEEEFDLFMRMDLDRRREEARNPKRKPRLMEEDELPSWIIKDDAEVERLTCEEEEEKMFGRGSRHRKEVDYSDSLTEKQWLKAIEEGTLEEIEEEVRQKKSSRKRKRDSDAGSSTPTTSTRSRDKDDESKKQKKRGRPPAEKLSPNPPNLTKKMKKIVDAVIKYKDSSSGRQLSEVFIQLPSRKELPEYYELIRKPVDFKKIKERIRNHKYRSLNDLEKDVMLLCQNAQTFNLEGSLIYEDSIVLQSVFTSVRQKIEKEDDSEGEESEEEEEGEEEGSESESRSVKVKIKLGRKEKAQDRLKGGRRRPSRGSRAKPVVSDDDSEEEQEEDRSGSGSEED
Procedure, shortened: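 ADP produced by BRG-1 was quantified by luciferase luminescence. A 60 min room-temperature ADP-to-ATP conversion followed a 40 min ATP-depletion step.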

T1 sequence (P51531 whole entry): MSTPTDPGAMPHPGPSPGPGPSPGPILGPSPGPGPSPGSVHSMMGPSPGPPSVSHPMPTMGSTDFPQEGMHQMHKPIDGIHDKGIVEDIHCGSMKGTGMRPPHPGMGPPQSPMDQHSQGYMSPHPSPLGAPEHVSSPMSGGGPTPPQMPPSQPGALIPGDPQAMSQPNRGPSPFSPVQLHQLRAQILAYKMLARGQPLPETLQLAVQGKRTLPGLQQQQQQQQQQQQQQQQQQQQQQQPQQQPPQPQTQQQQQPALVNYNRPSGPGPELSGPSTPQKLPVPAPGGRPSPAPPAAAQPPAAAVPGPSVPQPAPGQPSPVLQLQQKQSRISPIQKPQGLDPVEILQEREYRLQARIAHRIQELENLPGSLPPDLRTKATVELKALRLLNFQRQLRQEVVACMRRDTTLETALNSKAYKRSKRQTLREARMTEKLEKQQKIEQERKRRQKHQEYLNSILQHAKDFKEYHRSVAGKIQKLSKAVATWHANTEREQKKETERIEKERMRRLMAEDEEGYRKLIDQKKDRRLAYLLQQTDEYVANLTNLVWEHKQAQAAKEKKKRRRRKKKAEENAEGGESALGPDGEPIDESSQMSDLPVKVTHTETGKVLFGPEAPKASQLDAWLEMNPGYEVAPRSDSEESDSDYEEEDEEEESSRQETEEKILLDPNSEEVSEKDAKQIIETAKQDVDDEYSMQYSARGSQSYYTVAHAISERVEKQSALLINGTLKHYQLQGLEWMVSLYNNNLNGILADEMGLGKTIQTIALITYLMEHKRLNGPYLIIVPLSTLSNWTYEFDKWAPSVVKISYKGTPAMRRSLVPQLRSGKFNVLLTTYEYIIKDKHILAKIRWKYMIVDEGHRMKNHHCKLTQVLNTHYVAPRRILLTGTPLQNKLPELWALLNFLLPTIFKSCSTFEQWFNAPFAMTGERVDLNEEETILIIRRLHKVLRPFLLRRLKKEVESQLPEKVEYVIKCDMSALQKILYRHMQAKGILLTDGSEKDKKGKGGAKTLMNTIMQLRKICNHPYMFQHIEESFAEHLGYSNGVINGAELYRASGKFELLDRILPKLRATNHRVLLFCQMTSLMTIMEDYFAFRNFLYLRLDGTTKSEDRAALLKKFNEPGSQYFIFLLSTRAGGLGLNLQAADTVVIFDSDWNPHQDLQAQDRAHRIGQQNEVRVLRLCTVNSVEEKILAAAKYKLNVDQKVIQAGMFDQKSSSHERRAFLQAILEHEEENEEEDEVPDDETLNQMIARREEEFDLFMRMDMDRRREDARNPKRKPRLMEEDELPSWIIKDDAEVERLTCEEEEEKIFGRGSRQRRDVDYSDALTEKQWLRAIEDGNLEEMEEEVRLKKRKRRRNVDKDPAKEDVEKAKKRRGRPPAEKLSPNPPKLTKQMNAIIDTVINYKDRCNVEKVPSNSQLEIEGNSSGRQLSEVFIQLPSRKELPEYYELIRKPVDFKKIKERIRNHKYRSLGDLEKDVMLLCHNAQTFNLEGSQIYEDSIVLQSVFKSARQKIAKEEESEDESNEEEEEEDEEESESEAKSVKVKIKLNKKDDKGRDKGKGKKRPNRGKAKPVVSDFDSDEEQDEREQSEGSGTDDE

O=C(NCc1cc2nc(N3CCCc4ccc(C(F)F)cc43)ccc2cn1)c1ccc2c(c1)S(=O)(=O)CCOC2 [Compound 532]
IC50 (BRM): 6.4 nM
Ratio* (BRM): 18.84
IC50 (BRG-1): 120 nM

O=C(NCc1cc2nc(N3CCCc4ccc(Cl)cc43)ccc2cn1)c1ccc2c(c1)S(=O)(=O)CCOC2 [Compound 533]
IC50 (BRM): 7.3 nM
Ratio* (BRM): 12.51
IC50 (BRG-1): 91.4 nM

CO[C@H]1C[C@H]1N(C)c1cccc(-c2ccc3cnc(CNC(=O)c4ccc5c(c4)S(=O)(=O)CCOC5)cc3n2)n1 [Compound 534]
IC50 (BRM): 6.1 nM
Ratio* (BRM): 12.41
IC50 (BRG-1): 76.3 nM

O=C(NCc1cc2nc(N3CCCc4ccc(C5CC5)nc43)ccc2cn1)c1ccc2c(c1)S(=O)(=O)CCOC2 [Compound 536]
IC50 (BRM): 10.4 nM
Ratio* (BRM): 56.64
IC50 (BRG-1): 590 nM

Cc1ccc2c(n1)N(c1ccc3cnc(CNC(=O)c4ccc5c(c4)S(=O)(=O)CCCO5)cc3n1)CCC2 [Compound 538]
IC50 (BRM): 114 nM
Ratio* (BRM): 14.67
IC50 (BRG-1): 1670 nM

COc1ccc2c(c1)N(c1ccc3cnc(CNC(=O)c4ccc5c(c4)S(=O)(=O)CCOC5)cc3n1)CCC2 [Compound 539]
IC50 (BRM): 12.2 nM
Ratio* (BRM): 12.53
IC50 (BRG-1): 153 nM

CC1CN(c2cccc(-c3ccc4cnc(CNC(=O)c5ccc6c(c5)S(=O)(=O)C(C)COC6C)cc4n3)n2)CC(C)O1 (stereo not drawn) [Compound 540]
IC50 (BRM): 30.7 nM
Ratio* (BRM): 20.63
IC50 (BRG-1): 632 nM

COc1nc(C(C)(F)F)ccc1-c1ccc2cnc(CNC(=O)c3ccc4c(c3)S(=O)(=O)[C@@H](C)COC4)cc2n1 [Compound 542]
IC50 (BRM): 16.8 nM
Ratio* (BRM): 13.60
IC50 (BRG-1): 229 nM

COc1nc(C(C)(F)F)ccc1-c1ccc2cnc(CNC(=O)c3cc(F)c4c(c3)S(=O)(=O)[C@@H](C)COC4)cc2n1 [Compound 543]
IC50 (BRM): 20.2 nM
Ratio* (BRM): 18.97
IC50 (BRG-1): 383 nM

Cc1cc(C(=O)NCc2cc3nc(-c4cccc(N5C[C@@H](C)O[C@@H](C)C5)n4)ccc3cn2)cc2c1O[C@@H](C)CCS2(=O)=O [Compound 544]
IC50 (BRM): 41.8 nM
Ratio* (BRM): 24.42
IC50 (BRG-1): 1020 nM

Cc1cnc2c(c1)OCCN2c1ccc2cnc(CNC(=O)c3ccc4c(c3)S(=O)(=O)C(C)COC4)cc2n1 (stereo not drawn) [Compound 545]
IC50 (BRM): 7.7 nM
Ratio* (BRM): 8.60
IC50 (BRG-1): 65.9 nM

COc1ccc2c(c1)OCCN2c1ccc2cnc(CNC(=O)c3ccc4c(c3)S(=O)(=O)CCOC4)cc2n1 [Compound 548]
IC50 (BRM): 5.4 nM
Ratio* (BRM): 9.59
IC50 (BRG-1): 51.7 nM

Cc1cnc2c(c1)OCCN2c1ccc2cnc(CNC(=O)c3cc(C)c4c(c3)S(=O)(=O)CCOC4)cc2n1 [Compound 549]
IC50 (BRM): 7.3 nM
Ratio* (BRM): 17.80
IC50 (BRG-1): 131 nM

Cc1cnc2c(c1)OCCN2c1ccc2cnc(CNC(=O)c3cc(F)c4c(c3)S(=O)(=O)CCOC4)cc2n1 [Compound 550]
IC50 (BRM): 5.3 nM
Ratio* (BRM): 12.09
IC50 (BRG-1): 63.9 nM

Cc1ccc2c(c1)OCCN2c1ccc2cnc(CNC(=O)c3ccc4c(c3)S(=O)(=O)CCCO4)cc2n1 [Compound 551]
IC50 (BRM): 20.3 nM
Ratio* (BRM): 19.65
IC50 (BRG-1): 399 nM

Cc1cnc2c(c1)OCCN2c1ccc2cnc(CNC(=O)c3cc(Cl)c4c(c3)S(=O)(=O)CCOC4)cc2n1 [Compound 552]
IC50 (BRM): 9.8 nM
Ratio* (BRM): 19.48
IC50 (BRG-1): 190 nM

C[C@@H]1CN(c2cccc(-c3ccc4cnc(CNC(=O)c5cc(Cl)c6c(c5)S(=O)(=O)CCO[C@@H]6C)cc4n3)n2)C[C@H](C)O1 [Compound 553]
IC50 (BRM): 20.4 nM
Ratio* (BRM): 22.48
IC50 (BRG-1): 458 nM

Cc1cnc2c(c1)OCCN2c1ccc2cnc(CNC(=O)c3cc(F)c4c(c3)S(=O)(=O)[C@@H](C)COC4)cc2n1 [Compound 554]
IC50 (BRM): 8.6 nM
Ratio* (BRM): 9.64
IC50 (BRG-1): 83.1 nM

O=C(NCc1cc2nc(N3CCCc4c(OC5COC5)cccc43)ccc2cn1)c1ccc2c(c1)S(=O)(=O)CCOC2 [Compound 555]
IC50 (BRM): 4.6 nM
Ratio* (BRM): 5.44
IC50 (BRG-1): 25 nM

Cc1ccc2c(n1)N(c1ccc3cnc(CNC(=O)c4ccc5c(c4)S(=O)(=O)CCOC5)cc3n1)CCO2 [Compound 557]
IC50 (BRM): 11.3 nM
Ratio* (BRM): 20.89
IC50 (BRG-1): 235 nM

N#Cc1ccc2c(c1)N(c1ccc3cnc(CNC(=O)c4ccc5c(c4)S(=O)(=O)CCOC5)cc3n1)CCC2 [Compound 558]
IC50 (BRM): 9.3 nM
Ratio* (BRM): 14.96
IC50 (BRG-1): 139 nM

CO[C@@H](C)c1ccc2c(n1)N(c1ccc3cnc(CNC(=O)c4ccc5c(c4)S(=O)(=O)CCOC5)cc3n1)CCC2 [Compound 561]
IC50 (BRM): 67.2 nM
Ratio* (BRM): 12.50
IC50 (BRG-1): 839 nM

CCOCc1ccc2c(n1)N(c1ccc3cnc(CNC(=O)c4ccc5c(c4)S(=O)(=O)CCOC5)cc3n1)CCC2 [Compound 564]
IC50 (BRM): 33.6 nM
Ratio* (BRM): 26.25
IC50 (BRG-1): 881 nM

COc1cnc2c(c1)CCCN2c1ccc2cnc(CNC(=O)c3ccc4c(c3)S(=O)(=O)CCOC4)cc2n1 [Compound 565]
IC50 (BRM): 11.5 nM
Ratio* (BRM): 12.06
IC50 (BRG-1): 138 nM

O=C(NCc1cc2nc(N3CCCc4ccc(N5CCC5)nc43)ccc2cn1)c1ccc2c(c1)S(=O)(=O)CCOC2 [Compound 566]
IC50 (BRM): 32.6 nM
Ratio* (BRM): 20.83
IC50 (BRG-1): 679 nM

CC1CN(c2cccc(-c3ccc4cnc(CNC(=O)c5ccc6c(c5)S(=O)(=O)C(C)CN6C)cc4n3)n2)CC(C)O1 (stereo not drawn) [Compound 567]
IC50 (BRM): 32.8 nM
Ratio* (BRM): 16.28
IC50 (BRG-1): 534 nM

COc1ccc2c(n1)N(c1ccc3cnc(CNC(=O)c4ccc5c(c4)S(=O)(=O)CCOC5)cc3n1)CCC2 [Compound 568]
IC50 (BRM): 106 nM
Ratio* (BRM): 9.95
IC50 (BRG-1): 1060 nM

CN1CCCCc2ccc(-c3ccc4cnc(CNC(=O)c5ccc6c(c5)S(=O)(=O)CCOC6)cc4n3)nc21 [Compound 569]
IC50 (BRM): 156 nM
Ratio* (BRM): 3.32
IC50 (BRG-1): 517 nM

O=C(NCc1cc2nc(N3CCCc4ccc(C(F)(F)F)nc43)ccc2cn1)c1ccc2c(c1)S(=O)(=O)CCOC2 [Compound 570]
IC50 (BRM): 66.9 nM
Ratio* (BRM): 8.32
IC50 (BRG-1): 557 nM

CCOc1ccnc2c1CCCN2c1ccc2cnc(CNC(=O)c3ccc4c(c3)S(=O)(=O)CCOC4)cc2n1 [Compound 573]
IC50 (BRM): 7.9 nM
Ratio* (BRM): 5.56
IC50 (BRG-1): 43.8 nM

O=C(NCc1cc2nc(-n3cc(F)c(N4CCOCC4)n3)ccc2cn1)c1ccc2c(c1)S(=O)(=O)CCOC2 [Compound 574]
IC50 (BRM): 274 nM
Ratio* (BRM): 6.49
IC50 (BRG-1): 1780 nM

C[C@H]1CN(c2cccc(-c3ccc4cnc(CNC(=O)c5ccc(Cl)c(S(C)(=O)=O)c5)cc4n3)n2)CC[C@@H]1O [Compound 575]
IC50 (BRM): 5.4 nM
Ratio* (BRM): 15.34
IC50 (BRG-1): 82.3 nM

CCOc1ccc2c(n1)N(c1ccc3cnc(CNC(=O)c4ccc5c(c4)S(=O)(=O)CCOC5)cc3n1)CCC2 [Compound 576]
IC50 (BRM): 88.9 nM
Ratio* (BRM): 18.86
IC50 (BRG-1): 1680 nM

C[C@@H]1CN(c2cccc(-c3ccc4cnc(CNC(=O)c5ccc(COC6CC6)c(S(C)(=O)=O)c5)cc4n3)n2)C[C@H](C)O1 [Compound 578]
IC50 (BRM): 27.7 nM
Ratio* (BRM): 19.00
IC50 (BRG-1): 525 nM

CC[C@@H]1CCS(=O)(=O)c2cc(C(=O)NCc3cc4nc(-c5cccc(N6C[C@@H](C)O[C@@H](C)C6)n5)ccc4cn3)ccc2O1 [Compound 580]
IC50 (BRM): 106 nM
Ratio* (BRM): 16.67
IC50 (BRG-1): 1760 nM

C[C@@H]1CN(c2cccc(-c3ccc4cnc(CNC(=O)c5ccc6c(c5)S(=O)(=O)CC[C@@H](C(F)F)O6)cc4n3)n2)C[C@H](C)O1 [Compound 581]
IC50 (BRM): 155 nM
Ratio* (BRM): 15.23
IC50 (BRG-1): 2370 nM

O=C(NCc1cc2nc(N3CCOc4ccc(C(F)(F)F)nc43)ccc2cn1)c1ccc2c(c1)S(=O)(=O)CCOC2 [Compound 583]
IC50 (BRM): 109 nM
Ratio* (BRM): 17.41
IC50 (BRG-1): 1890 nM

COC1(Cn2ccc3c(-c4ccc5cnc(CNC(=O)c6ccc7c(c6)S(=O)(=O)CCOC7)cc5n4)ccnc32)CC1 [Compound 585]
IC50 (BRM): 40.1 nM
Ratio* (BRM): 9.22
IC50 (BRG-1): 369 nM

COCCOc1ccc2c(c1)N(c1ccc3cnc(CNC(=O)c4ccc5c(c4)S(=O)(=O)CCOC5)cc3n1)CCC2 [Compound 586]
IC50 (BRM): 5.5 nM
Ratio* (BRM): 14.77
IC50 (BRG-1): 81.9 nM

C[C@@H]1CN(c2cccc(-c3ccc4cnc(CNC(=O)c5ccc6c(c5)S(=O)(=O)CCC(F)(F)C6)cc4n3)n2)C[C@H](C)O1 [Compound 587]
IC50 (BRM): 11.2 nM
Ratio* (BRM): 5.69
IC50 (BRG-1): 63.9 nM

O=C(NCc1cc2nc(N3CCCc4cc(Cl)cnc43)ccc2cn1)c1ccc2c(c1)S(=O)(=O)CCOC2 [Compound 588]
IC50 (BRM): 28.9 nM
Ratio* (BRM): 14.25
IC50 (BRG-1): 412 nM

O=C(NCc1cc2nc(N3CCCc4ccc(OCC5CC5)nc43)ccc2cn1)c1ccc2c(c1)S(=O)(=O)CCOC2 [Compound 589]
IC50 (BRM): 77.7 nM
Ratio* (BRM): 13.88
IC50 (BRG-1): 1080 nM

COCc1cc2c(nc1C)N(c1ccc3cnc(CNC(=O)c4ccc5c(c4)S(=O)(=O)CCOC5)cc3n1)CCC2 [Compound 590]
IC50 (BRM): 22.4 nM
Ratio* (BRM): 7.93
IC50 (BRG-1): 177 nM

O=C(NCc1cc2nc(N3CCCc4cc(F)cnc43)ccc2cn1)c1ccc2c(c1)S(=O)(=O)CCOC2 [Compound 591]
IC50 (BRM): 22 nM
Ratio* (BRM): 10.98
IC50 (BRG-1): 242 nM

Cc1ccc2c(n1)N(c1ccc3cnc(CNC(=O)c4ccc5c(c4)S(=O)(=O)CCOC5)cc3n1)CCN2C [Compound 593]
IC50 (BRM): 243 nM
Ratio* (BRM): 9.02
IC50 (BRG-1): 2190 nM
